Source: ChEMBL document CHEMBL1201862, “PubChem BioAssay data set” (2004)
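Briefly, cells in 96-well plates were exposed to five compound concentrations for 48 h, and endpoints were estimated by linear interpolation. GI50 = concentration required for 50% inhibition of growth.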 Calls of active or inactive are those of the source. Rule as the data show it: active = GI50 up to about 1.1 µM and inactive = higher.

Assays:
Assay in all cases: DTP human tumour cell line panel, 48 h
CAKI-1 = test system: CAKI-1
HCT-15 = test system: HCT-15
HL-60 = test system: HL-60
HOP-92 = test system: HOP-92
LOX IMVI = test system: LOX IMVI
MOLT-4 = test system: MOLT-4
NCI-H23 = test system: NCI-H23
OVCAR-5 = test system: OVCAR-5
SF-268 = test system: SF-268
SF-539 = test system: SF-539
SK-MEL-28 = test system: SK-MEL-28
SK-MEL-2 = test system: SK-MEL-2
SNB-75 = test system: SNB-75
UACC-257 = test system: UACC-257
COLO 205 = test system: COLO 205
SK-MEL-5 = test system: SK-MEL-5

Measured: GI50

CN(C)c1c([O-])c(=[N+](C)C)c1=O
> 100 µM: HCT-15
inactive: CAKI-1 > 100 µM | HL-60 > 100 µM | HOP-92 > 100 µM | LOX IMVI > 100 µM | MOLT-4 > 100 µM | NCI-H23 > 100 µM | OVCAR-5 > 100 µM | SF-268 > 100 µM | SF-539 > 100 µM | SK-MEL-28 > 100 µM | SK-MEL-2 > 100 µM | SNB-75 > 100 µM | UACC-257 > 100 µM

O=C1CC2C(=O)N(Cc3ccccc3)C1C=C2S(=O)(=O)c1ccccc1 (stereo unspecified)
inactive: COLO 205 > 100 µM | HL-60 > 100 µM | HOP-92 > 100 µM | LOX IMVI > 100 µM | MOLT-4 > 100 µM | NCI-H23 > 100 µM | SF-268 > 100 µM | SF-539 > 100 µM | SK-MEL-28 > 100 µM | SK-MEL-5 > 100 µM | SNB-75 > 100 µM | UACC-257 > 100 µM

COC1CC(OS(=O)(=O)c2ccc(C)cc2)C(OC(=O)c2ccccc2)C(C)O1 (stereo unspecified)
inactive: CAKI-1 > 10 µM | COLO 205 > 10 µM | HL-60 > 10 µM | HOP-92 99.1 µM | LOX IMVI > 10 µM | MOLT-4 > 10 µM | NCI-H23 > 10 µM | OVCAR-5 > 10 µM | SF-268 > 100 µM | SF-539 > 10 µM | SK-MEL-28 > 10 µM | SK-MEL-2 > 10 µM | SK-MEL-5 > 10 µM | SNB-75 99.5 µM | UACC-257 > 10 µM
> 10 µM: HCT-15

CC1(C)CCc2cc3c(cc2O1)OCC1c2cc4c(cc2OC31)OCO4 (stereo unspecified)
63 µM: HCT-15
inactive: CAKI-1 > 100 µM | COLO 205 > 100 µM | HL-60 35.5 µM | HOP-92 > 100 µM | LOX IMVI > 100 µM | MOLT-4 > 100 µM | NCI-H23 > 100 µM | OVCAR-5 > 100 µM | SF-268 > 100 µM | SF-539 > 100 µM | SK-MEL-5 39.9 µM | SNB-75 > 100 µM | UACC-257 28 µM

CCOC(=O)Cc1csc(Nc2ccc(OCC)cc2)n1
inactive: COLO 205 > 100 µM | HL-60 > 100 µM | HOP-92 47.4 µM | MOLT-4 61.8 µM | NCI-H23 50.7 µM | SF-268 > 100 µM | SF-539 > 100 µM | SK-MEL-28 > 100 µM | SK-MEL-2 > 100 µM | SNB-75 40.4 µM | UACC-257 > 100 µM
> 100 µM: HCT-15

Cc1cc2c3ccccc3n(C)c2c2c1C(=O)c1ccccc1C2=O
inactive: CAKI-1 21.9 µM | COLO 205 21.1 µM | HL-60 7.82 µM | HOP-92 13.5 µM | MOLT-4 5.83 µM | NCI-H23 15.6 µM | SF-268 25 µM | SF-539 > 100 µM | SK-MEL-28 18.6 µM | SK-MEL-2 20 µM | SNB-75 29.2 µM | UACC-257 20 µM

COc1ccc(C2=C3c4cc(OC)c(OC)cc4CCN3C(=S)SS2)cc1OC
77.6 µM: HCT-15
inactive: CAKI-1 77.6 µM | COLO 205 > 100 µM | HL-60 24.4 µM | HOP-92 32.1 µM | LOX IMVI 40.8 µM | MOLT-4 > 100 µM | NCI-H23 50.7 µM | OVCAR-5 > 100 µM | SF-268 72.1 µM | SF-539 > 100 µM | SK-MEL-28 70.6 µM | SK-MEL-2 57 µM | SK-MEL-5 13.3 µM | SNB-75 25.1 µM | UACC-257 72.4 µM

COC(=O)C(C(=O)C(=O)Nc1c(Cl)cc([N+](=O)[O-])cc1Cl)c1nc2cc(C)c(C)cc2nc1O (stereo unspecified)
> 100 µM: HCT-15
inactive: CAKI-1 > 100 µM | COLO 205 > 100 µM | HL-60 > 100 µM | HOP-92 47.8 µM | LOX IMVI > 100 µM | MOLT-4 > 100 µM | NCI-H23 > 100 µM | OVCAR-5 > 100 µM | SF-268 > 100 µM | SF-539 > 100 µM | SK-MEL-2 > 100 µM | SNB-75 86.5 µM | UACC-257 > 100 µM

CC#Cc1c(C#CC)c(OC)c2c(c1OC)C(=O)c1ccccc1C2=O
61.7 µM: HCT-15
inactive: CAKI-1 47.9 µM | COLO 205 > 100 µM | HL-60 33 µM | LOX IMVI > 100 µM | MOLT-4 > 100 µM | NCI-H23 29.8 µM | OVCAR-5 > 100 µM | SF-268 25.7 µM | SK-MEL-28 > 100 µM | SK-MEL-2 38.5 µM | SK-MEL-5 49.1 µM | UACC-257 > 100 µM

NNC(=S)N/N=C(/C(=O)Nc1cc(Cl)ccc1Cl)C1C(=O)Nc2ccccc2[S+]1[O-] (stereo unspecified)
> 100 µM: HCT-15
inactive: CAKI-1 > 100 µM | COLO 205 > 100 µM | HL-60 > 100 µM | HOP-92 > 100 µM | LOX IMVI > 100 µM | MOLT-4 78.9 µM | NCI-H23 > 100 µM | OVCAR-5 > 100 µM | SF-268 > 100 µM | SF-539 > 100 µM | SK-MEL-28 > 100 µM | SK-MEL-2 > 100 µM | SK-MEL-5 > 100 µM | SNB-75 > 100 µM | UACC-257 > 100 µM

O=C(NCCS(=O)(=O)N1C(=O)C2CCCN2C(=O)[C@@H]1Cc1ccccc1)OCc1ccccc1 (stereo partly specified)
inactive: CAKI-1 > 100 µM | COLO 205 26.2 µM | HL-60 24.2 µM | HOP-92 27.7 µM | LOX IMVI 50.6 µM | MOLT-4 48 µM | NCI-H23 67.6 µM | OVCAR-5 70.3 µM | SF-268 45.6 µM | SF-539 76.6 µM | SK-MEL-28 78.3 µM | SK-MEL-5 47.4 µM | SNB-75 33.3 µM | UACC-257 48.2 µM
51.8 µM: HCT-15

CCc1cccc(CC)c1NC(=O)CC1SC(N)=NC1=O (stereo unspecified)
inactive: COLO 205 > 100 µM | HL-60 > 100 µM | HOP-92 > 100 µM | LOX IMVI > 100 µM | MOLT-4 > 100 µM | NCI-H23 > 100 µM | OVCAR-5 > 100 µM | SF-268 > 100 µM | SF-539 > 100 µM | SK-MEL-28 > 100 µM | SK-MEL-2 > 100 µM | SK-MEL-5 > 100 µM | SNB-75 > 100 µM | UACC-257 > 100 µM
> 100 µM: HCT-15

O=C(NCCCN1CCN(CCCNC(=O)c2cccc3ccccc23)CC1)c1cccc2ccccc12
active: HOP-92 0.107 µM
> 100 µM: HCT-15
inactive: CAKI-1 51.3 µM | COLO 205 > 100 µM | HL-60 79.6 µM | LOX IMVI > 100 µM | MOLT-4 > 100 µM | NCI-H23 57.8 µM | OVCAR-5 > 100 µM | SF-539 54.7 µM | SK-MEL-2 > 100 µM | SK-MEL-5 36.4 µM | SNB-75 20.9 µM | UACC-257 > 100 µM

C[C@H]1CCC2C(CN3CCCCC3)C(=O)OC2[C@]2(C)C(=O)CC(N3CCCCC3)C12O (stereo partly specified)
inactive: CAKI-1 15.7 µM | COLO 205 4.69 µM | HL-60 1.56 µM | HOP-92 2.68 µM | MOLT-4 2.21 µM | NCI-H23 4.3 µM | OVCAR-5 10.7 µM | SF-268 6.95 µM | SF-539 2.26 µM | SK-MEL-28 4.18 µM | SK-MEL-2 10.7 µM | SK-MEL-5 4.73 µM | SNB-75 11.3 µM | UACC-257 3.1 µM

CCN1CCC(O)(c2ccc(OC)cc2)C(C(=O)c2ccc(OC)cc2)C1 (stereo unspecified)
inactive: CAKI-1 17.2 µM | COLO 205 22.9 µM | HL-60 15.9 µM | LOX IMVI 20 µM | MOLT-4 17.5 µM | NCI-H23 17.7 µM | OVCAR-5 18.4 µM | SF-268 20.6 µM | SF-539 17 µM | SK-MEL-28 3.25 µM | SK-MEL-2 19.6 µM | SK-MEL-5 15.3 µM | SNB-75 16.4 µM | UACC-257 20.6 µM
20.3 µM: HCT-15

N#CCc1nnc(N)o1
> 100 µM: HCT-15
inactive: CAKI-1 > 100 µM | HL-60 > 100 µM | HOP-92 > 100 µM | LOX IMVI > 100 µM | MOLT-4 > 100 µM | NCI-H23 > 100 µM | SF-268 > 100 µM | SF-539 > 100 µM | SK-MEL-28 > 100 µM | SK-MEL-2 > 100 µM | SNB-75 > 100 µM | UACC-257 > 100 µM

C=C1C[C@]23CCC4C(C)(C)C(=O)CC[C@]4(C)C2C[C@H]1C(O)C3=O (stereo partly specified)
inactive: COLO 205 > 75 µM | HL-60 > 75 µM | LOX IMVI > 75 µM | MOLT-4 > 75 µM | NCI-H23 > 75 µM | SF-268 > 75 µM | SF-539 > 75 µM | SK-MEL-28 > 75 µM | SK-MEL-2 > 75 µM | SK-MEL-5 > 75 µM | SNB-75 > 75 µM | UACC-257 > 75 µM
> 75 µM: HCT-15

CN(C)CCn1c2ccccc2c2nc3cc4ccccc4cc3nc21
inactive: CAKI-1 4.91 µM | COLO 205 1.87 µM | HL-60 1.86 µM | LOX IMVI 3.18 µM | NCI-H23 8.91 µM | SF-268 2.14 µM | SK-MEL-28 9.23 µM | SK-MEL-2 11.1 µM | SK-MEL-5 10.1 µM
4.81 µM: HCT-15
active: MOLT-4 0.885 µM

C/C(CN1C(=O)c2ccccc2C1=O)=N\NS(=O)(=O)c1ccc(F)cc1
> 100 µM: HCT-15
inactive: CAKI-1 > 100 µM | COLO 205 > 100 µM | HL-60 > 100 µM | LOX IMVI > 100 µM | MOLT-4 > 100 µM | NCI-H23 > 100 µM | OVCAR-5 > 100 µM | SF-268 > 100 µM | SF-539 > 100 µM | SK-MEL-28 > 100 µM | SK-MEL-2 > 100 µM | SK-MEL-5 > 100 µM | SNB-75 > 100 µM | UACC-257 > 100 µM

CC(C)(C)OC1=C(OC(C)(C)C)C(O)(c2ccc(Cl)cc2)C1=O (stereo unspecified)
inactive: COLO 205 > 100 µM | HL-60 > 100 µM | LOX IMVI > 100 µM | MOLT-4 > 100 µM | NCI-H23 > 100 µM | OVCAR-5 > 100 µM | SF-268 > 100 µM | SF-539 > 100 µM | SK-MEL-28 > 100 µM | SK-MEL-5 > 100 µM | SNB-75 99.3 µM
> 100 µM: HCT-15
